Measurements: ChEMBL document CHEMBL4630908 (2021)

What was measured:
[1] = molecular target: Sigma intracellular receptor 2 (Homo sapiens) (UniProt Q5BJF2); conditions: Compound concentration 10.0 uM
[2] = molecular target: T1, 5-hydroxytryptamine receptor 1B (Homo sapiens, UniProt P28222); conditions: Compound concentration 10.0 uM
[3] = molecular target: Vasopressin V1a receptor (Homo sapiens, UniProt P37288); experiment: (§1) Cross screening panel
[4] = molecular target: Solute carrier organic anion transporter family member 1B1 (Homo sapiens, UniProt Q9Y6L6); experiment: as §1
Solute carrier organic anion transporter family member 1B1, sequence (Q9Y6L6 whole entry): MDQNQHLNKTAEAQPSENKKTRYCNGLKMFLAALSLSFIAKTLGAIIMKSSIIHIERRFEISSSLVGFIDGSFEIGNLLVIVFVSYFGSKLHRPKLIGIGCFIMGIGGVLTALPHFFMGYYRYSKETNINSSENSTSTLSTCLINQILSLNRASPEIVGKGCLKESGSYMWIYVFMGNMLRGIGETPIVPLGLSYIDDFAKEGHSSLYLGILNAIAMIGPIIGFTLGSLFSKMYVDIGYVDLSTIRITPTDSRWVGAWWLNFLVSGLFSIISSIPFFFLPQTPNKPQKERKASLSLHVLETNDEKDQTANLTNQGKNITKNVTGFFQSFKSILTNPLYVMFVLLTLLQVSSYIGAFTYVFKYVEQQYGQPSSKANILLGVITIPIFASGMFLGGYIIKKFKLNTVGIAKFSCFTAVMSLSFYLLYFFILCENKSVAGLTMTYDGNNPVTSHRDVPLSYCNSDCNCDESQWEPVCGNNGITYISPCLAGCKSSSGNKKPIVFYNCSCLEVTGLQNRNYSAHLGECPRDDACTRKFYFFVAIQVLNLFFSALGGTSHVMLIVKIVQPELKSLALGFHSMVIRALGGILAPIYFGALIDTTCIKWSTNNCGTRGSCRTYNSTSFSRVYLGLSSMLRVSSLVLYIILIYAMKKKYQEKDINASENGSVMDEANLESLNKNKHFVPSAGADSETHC

[5] = molecular target: Muscarinic acetylcholine receptor M2 (Homo sapiens, UniProt P08172); experiment: as §1
Muscarinic acetylcholine receptor M2, sequence (P08172 whole entry): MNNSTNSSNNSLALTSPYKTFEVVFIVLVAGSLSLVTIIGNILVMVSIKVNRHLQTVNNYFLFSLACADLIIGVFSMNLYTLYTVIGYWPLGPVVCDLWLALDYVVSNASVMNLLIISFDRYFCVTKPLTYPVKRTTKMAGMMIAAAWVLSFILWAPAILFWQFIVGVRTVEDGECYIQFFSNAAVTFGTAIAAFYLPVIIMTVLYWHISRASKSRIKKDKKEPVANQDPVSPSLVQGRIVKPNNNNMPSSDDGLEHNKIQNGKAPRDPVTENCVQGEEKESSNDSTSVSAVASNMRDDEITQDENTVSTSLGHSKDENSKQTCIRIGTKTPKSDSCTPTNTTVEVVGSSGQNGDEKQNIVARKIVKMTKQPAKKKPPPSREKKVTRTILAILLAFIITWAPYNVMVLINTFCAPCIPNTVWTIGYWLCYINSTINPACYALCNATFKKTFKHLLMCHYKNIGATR

[6] = molecular target: Substance-P receptor (Homo sapiens, UniProt P25103); experiment: as §1
[7] = molecular target: Glutamate receptor ionotropic, NMDA 2B (Homo sapiens, UniProt Q13224); experiment: as §1
[8] = molecular target: Acetylcholinesterase (Homo sapiens, UniProt P22303); experiment: as §1
[9] = molecular target: 5-hydroxytryptamine receptor 2A (Homo sapiens, UniProt P28223); experiment: as §1
5-hydroxytryptamine receptor 2A, sequence (P28223 whole entry): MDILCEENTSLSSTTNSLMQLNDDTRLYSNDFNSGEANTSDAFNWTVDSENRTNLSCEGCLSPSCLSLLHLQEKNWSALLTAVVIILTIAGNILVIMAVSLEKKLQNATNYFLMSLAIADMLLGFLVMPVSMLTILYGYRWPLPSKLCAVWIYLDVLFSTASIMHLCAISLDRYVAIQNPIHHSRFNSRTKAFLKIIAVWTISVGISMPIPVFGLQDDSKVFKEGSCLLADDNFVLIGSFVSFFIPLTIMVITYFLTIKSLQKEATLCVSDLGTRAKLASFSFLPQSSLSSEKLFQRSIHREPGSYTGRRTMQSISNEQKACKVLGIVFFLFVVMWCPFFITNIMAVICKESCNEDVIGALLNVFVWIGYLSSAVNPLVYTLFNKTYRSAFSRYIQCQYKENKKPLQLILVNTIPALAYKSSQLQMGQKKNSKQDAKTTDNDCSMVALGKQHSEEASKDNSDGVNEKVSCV

[10] = molecular target: Sodium-dependent serotonin transporter (Homo sapiens, UniProt P31645); experiment: as §1
Sodium-dependent serotonin transporter, sequence (P31645 whole entry): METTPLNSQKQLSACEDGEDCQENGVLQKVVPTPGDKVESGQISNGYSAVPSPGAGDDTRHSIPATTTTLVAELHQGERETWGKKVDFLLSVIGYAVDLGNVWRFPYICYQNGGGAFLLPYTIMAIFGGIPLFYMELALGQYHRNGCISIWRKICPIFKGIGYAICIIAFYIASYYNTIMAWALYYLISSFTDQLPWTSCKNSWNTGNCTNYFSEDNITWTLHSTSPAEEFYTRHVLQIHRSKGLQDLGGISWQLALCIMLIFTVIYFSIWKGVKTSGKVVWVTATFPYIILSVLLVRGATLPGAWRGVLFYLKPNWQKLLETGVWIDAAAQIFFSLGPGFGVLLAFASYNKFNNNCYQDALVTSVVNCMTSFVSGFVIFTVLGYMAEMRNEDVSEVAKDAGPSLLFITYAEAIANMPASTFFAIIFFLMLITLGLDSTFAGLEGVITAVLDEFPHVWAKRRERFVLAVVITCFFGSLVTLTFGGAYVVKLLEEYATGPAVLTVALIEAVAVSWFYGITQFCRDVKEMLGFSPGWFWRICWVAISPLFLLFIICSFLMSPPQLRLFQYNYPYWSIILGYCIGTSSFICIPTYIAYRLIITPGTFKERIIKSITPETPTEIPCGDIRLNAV

[11] = molecular target: 3',5'-cyclic-AMP phosphodiesterase 4B (Homo sapiens, UniProt Q07343); experiment: as §1
[12] = molecular target: Mu-type opioid receptor (Homo sapiens, UniProt P35372); experiment: as §1
[13] = molecular target: Alpha-2C adrenergic receptor (Homo sapiens, UniProt P18825); experiment: as §1
[14] = molecular target: Cannabinoid receptor 2 (Homo sapiens, UniProt P34972); experiment: as §1
[15] = molecular target: D(1A) dopamine receptor (Homo sapiens, UniProt P21728); experiment: as §1
[16] = molecular target: Phosphatidylinositol 4,5-bisphosphate 3-kinase catalytic subunit gamma isoform (Homo sapiens, UniProt P48736); experiment: as §1
[17] = molecular target: Beta-2 adrenergic receptor (Homo sapiens, UniProt P07550); experiment: as §1
Beta-2 adrenergic receptor, sequence (P07550 whole entry): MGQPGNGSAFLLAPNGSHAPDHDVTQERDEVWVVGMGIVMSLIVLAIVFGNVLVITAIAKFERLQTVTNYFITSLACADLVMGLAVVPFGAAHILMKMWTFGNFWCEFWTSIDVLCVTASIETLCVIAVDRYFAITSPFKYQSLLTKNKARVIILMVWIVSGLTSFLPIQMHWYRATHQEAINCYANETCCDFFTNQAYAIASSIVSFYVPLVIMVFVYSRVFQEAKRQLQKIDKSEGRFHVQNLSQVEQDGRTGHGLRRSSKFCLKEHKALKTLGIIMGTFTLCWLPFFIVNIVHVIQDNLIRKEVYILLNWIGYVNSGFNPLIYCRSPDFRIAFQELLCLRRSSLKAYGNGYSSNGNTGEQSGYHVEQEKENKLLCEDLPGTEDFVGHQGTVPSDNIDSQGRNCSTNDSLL

[18] = molecular target: 5-hydroxytryptamine receptor 2C (Homo sapiens, UniProt P28335); experiment: as §1
5-hydroxytryptamine receptor 2C, sequence (P28335 whole entry): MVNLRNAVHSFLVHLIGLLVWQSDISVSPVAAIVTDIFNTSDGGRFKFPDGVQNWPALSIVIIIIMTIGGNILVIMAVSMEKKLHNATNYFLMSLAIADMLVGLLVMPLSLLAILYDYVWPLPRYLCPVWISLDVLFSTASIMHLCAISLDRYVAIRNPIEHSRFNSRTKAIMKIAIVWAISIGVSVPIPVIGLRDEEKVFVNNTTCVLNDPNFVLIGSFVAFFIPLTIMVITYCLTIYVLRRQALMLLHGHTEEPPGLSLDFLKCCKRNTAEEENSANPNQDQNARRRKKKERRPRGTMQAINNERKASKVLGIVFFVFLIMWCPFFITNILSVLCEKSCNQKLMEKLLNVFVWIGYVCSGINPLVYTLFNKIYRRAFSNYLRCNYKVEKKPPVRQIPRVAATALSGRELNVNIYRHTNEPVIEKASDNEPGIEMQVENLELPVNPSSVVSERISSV

[19] = molecular target: Muscarinic acetylcholine receptor M1 (Homo sapiens, UniProt P11229); experiment: as §1
Muscarinic acetylcholine receptor M1, sequence (P11229 whole entry): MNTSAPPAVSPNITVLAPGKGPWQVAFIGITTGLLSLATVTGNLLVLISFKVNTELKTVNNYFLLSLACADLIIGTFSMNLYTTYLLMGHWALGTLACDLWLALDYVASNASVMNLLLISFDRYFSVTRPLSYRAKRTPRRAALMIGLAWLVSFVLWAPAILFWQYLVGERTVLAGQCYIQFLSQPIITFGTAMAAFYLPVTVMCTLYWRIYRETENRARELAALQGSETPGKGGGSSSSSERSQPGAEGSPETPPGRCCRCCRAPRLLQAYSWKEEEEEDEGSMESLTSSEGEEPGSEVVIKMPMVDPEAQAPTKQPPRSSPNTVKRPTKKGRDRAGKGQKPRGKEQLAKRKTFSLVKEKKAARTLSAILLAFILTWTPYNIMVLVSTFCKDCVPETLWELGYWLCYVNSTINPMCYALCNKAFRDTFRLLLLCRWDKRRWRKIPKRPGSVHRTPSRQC

[20] = molecular target: Sodium channel protein type 5 subunit alpha (Homo sapiens, UniProt Q14524); experiment: as §1
[21] = molecular target: Prostaglandin G/H synthase 2 (Homo sapiens, UniProt P35354); experiment: as §1
[22] = molecular target: Amine oxidase [flavin-containing] A (Homo sapiens, UniProt P21397); experiment: as §1
[23] = molecular target: Adenosine receptor A2a (Homo sapiens, UniProt P29274); experiment: as §1
Adenosine receptor A2a, sequence (P29274 whole entry): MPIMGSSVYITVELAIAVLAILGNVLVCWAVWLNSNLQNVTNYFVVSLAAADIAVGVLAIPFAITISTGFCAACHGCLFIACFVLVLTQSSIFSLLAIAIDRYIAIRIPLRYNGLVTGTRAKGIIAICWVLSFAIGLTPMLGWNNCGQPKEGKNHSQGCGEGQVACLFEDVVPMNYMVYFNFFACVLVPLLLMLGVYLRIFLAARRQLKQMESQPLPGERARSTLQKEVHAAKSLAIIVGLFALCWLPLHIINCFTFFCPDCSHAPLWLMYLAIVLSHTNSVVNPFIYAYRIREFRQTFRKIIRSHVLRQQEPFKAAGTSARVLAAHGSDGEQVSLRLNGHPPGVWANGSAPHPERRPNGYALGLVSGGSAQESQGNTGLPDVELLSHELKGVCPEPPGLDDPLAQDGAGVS

[24] = molecular target: D(2) dopamine receptor (Homo sapiens, UniProt P14416); experiment: as §1
D(2) dopamine receptor, sequence (P14416 whole entry): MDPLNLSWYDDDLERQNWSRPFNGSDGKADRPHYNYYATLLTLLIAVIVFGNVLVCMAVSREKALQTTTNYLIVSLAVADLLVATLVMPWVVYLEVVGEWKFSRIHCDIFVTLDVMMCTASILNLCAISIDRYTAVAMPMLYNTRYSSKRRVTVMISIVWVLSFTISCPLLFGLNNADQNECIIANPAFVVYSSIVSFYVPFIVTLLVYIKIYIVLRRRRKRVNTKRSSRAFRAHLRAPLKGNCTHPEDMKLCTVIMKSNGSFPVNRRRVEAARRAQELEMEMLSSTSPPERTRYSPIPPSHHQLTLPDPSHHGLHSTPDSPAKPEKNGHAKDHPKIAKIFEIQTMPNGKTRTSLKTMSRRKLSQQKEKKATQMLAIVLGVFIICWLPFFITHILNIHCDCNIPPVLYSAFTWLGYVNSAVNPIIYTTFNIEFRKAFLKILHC

[25] = molecular target: T1, 5-hydroxytryptamine receptor 1B; experiment: as §1
[26] = molecular target: cGMP-inhibited 3',5'-cyclic phosphodiesterase 3A (Homo sapiens, UniProt Q14432); experiment: as §1
[27] = molecular target: Tyrosine-protein kinase Lck (Homo sapiens, UniProt P06239); experiment: as §1

T1 sequence (P28222 whole entry): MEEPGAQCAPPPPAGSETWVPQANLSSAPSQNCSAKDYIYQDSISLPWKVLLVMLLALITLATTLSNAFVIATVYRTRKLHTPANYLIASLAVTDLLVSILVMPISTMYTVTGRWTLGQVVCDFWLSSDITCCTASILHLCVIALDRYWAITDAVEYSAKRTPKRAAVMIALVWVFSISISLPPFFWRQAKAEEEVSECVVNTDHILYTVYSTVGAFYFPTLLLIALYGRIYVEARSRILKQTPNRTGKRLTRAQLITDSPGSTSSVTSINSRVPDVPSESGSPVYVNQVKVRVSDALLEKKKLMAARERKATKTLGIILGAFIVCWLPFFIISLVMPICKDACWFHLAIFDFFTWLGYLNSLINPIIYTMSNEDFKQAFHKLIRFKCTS

CC(=O)Nc1c(F)cc(C(=O)N[C@H]2CC[C@H](O)CC2)cc1O[C@@H](C)c1ccccc1 [GSK046]
7.94 µM: IC50 [8]
> 25.1 µM: IC50 [6] | EC50 [9] | EC50 [18]
31.6 µM: EC50 [23]
> 39.8 µM: IC50 [3]
> 100 µM: IC50 [10] | IC50 [11] | EC50 [12] | EC50 [13] | EC50 [14] | IC50 [15] | EC50 [17] | IC50 [17] | IC50 [20] | IC50 [21] | IC50 [22] | EC50 [24] | Ki [24] | EC50 [25] | IC50 [25] | IC50 [26]
> 50.1 µM: IC50 [4] | EC50 [5] | IC50 [5] | IC50 [7] | EC50 [19] | IC50 [19]
> 31.6 µM: IC50 [16] | IC50 [27]
inactive: inhibition [1] -0.94% | inhibition [2] 11.6%
